This is an account of results in patent US11602550B2, “Compositions comprising bacterial strains and use thereof in controlling pathogenic microorganisms” (priority 2018, dated 2023).

What all share (assay): Agar well diffusion antifungal assay against molds
Common to all, as to type: cell-based
Details in all cases: PDA plates, 25° C. 72 hours; NA: No antagonism was observed
(A growth-free zone around the sample is the usual read-out of agar diffusion tests.)

In test [1] the test system is Alternaria alternata (Fries) Keissler (ATCC MYA-4642). The protocol:
(§1) The agar well diffusion assay was performed to evaluate the antagonistic activity of B. amyloliquefaciens 298 against the growth of pathogenic bacteria including Escherichia coli ATCC 22922, Pseudomonas aeruginosa, B. cereus ATCC 27348, Staphylococcus aureus ATCC 11335, Salmonella Typhimurium ATCC 14028 and Listeria innocua ATCC 3586. […] Brain Heart Infusion (BHI) Agar was used for the antagonism against pathogenic microorganisms while the Potato Dextrose Agar (PDA) was used for evaluation against molds. Reference pathogens were prepared using BHI broth at 37° C. for 18 hours while B. amyloliquefaciens 298 was grown using LB broth at 37° C. for 18 hours. Molds were prepared using PDA at 25° C. with 85% HR for 7 days. Mold spores, pathogens and B. amyloliquefaciens 298 were harvested and resuspended in PBS. Pathogens and B. amyloliquefaciens 298 were adjusted to an optical density of 0.2 and 100 uL of pathogen suspended in PBS was spread on BHI agar plates. The same amount of mold spore suspension was inoculated on PDA. Wells were made in all the plates and 20 μL of B. amyloliquefaciens 298 suspensions were inoculated in the wells while the BHI plates were incubated at 37° C. for 24 hours and PDA plates at 25° C. for 72 hours.
(§2) The agar well diffusion assay was performed to evaluate the antagonistic activity of B. subtilis 3 against the growth of pathogenic bacteria including Escherichia coli ATCC 25922, Pseudomonas aeruginosa ATCC 27853, B. cereus ATCC 27348, Staphylococcus aureus ATCC 6538, Salmonella Typhymurium ATCC 14028 and Listeria inocua ATCC 33090. […] Brain Heart Infusion (BHI) Agar was used for the antagonism against pathogenic microorganisms while the Potato Dextrose Agar (PDA) was used for evaluation against molds. Reference pathogens were prepared using BHI broth 37° C. for 18 hours, while B. subtilis 3 was grown using LB broth at 37° C. for 18 hours. Molds were prepared using PDA at 25° C. with 85% HR for 7 days. Mold spores, pathogens and B. subtilis 3 were harvested and resuspended in PBS. […] The same amount of mold spore suspension was inoculated on PDA. […]

Test [2] concerns Cladosporium sphaerospermum Penzig (ATCC MYA-4645). The protocol:
as §1, §2

For test [3], the system named is Penicillium chrysogenum Thom (ATCC MYA-4644). The protocol: as §1, §2

SMILES strings stand for the structures.

Turning to `OO` [Hydrogen peroxide 10%, Hydrogen peroxide], in test [1], the “Inhibition zone, Alternaria alternata (Fries) Keissler (ATCC MYA-4642)” value amounted to 8 mm. The “Inhibition zone, Cladosporium sphaerospermum Penzig (ATCC MYA-4645)” value in test [2] is 12 mm. In test [3], the “Inhibition zone, Penicillium chrysogenum Thom (ATCC MYA-4644)” value stood at 10 mm.
